Reference: patent US20240024302A1, “SOLUBLE EPOXIDE HYDROLASE (sEH) INHIBITORS AND DUAL COX/sEH INHIBITORS FOR THE TREATMENT OF ARRHYTHMOGENIC CARDIOMYOPATHY” (BETH ISRAEL DEACONESS MEDICAL CENTER, INC., priority 2020, published 2024)
Values after ≈ are worked out from the molar mass of the structure shown. “Also recorded” adds a separate entry of the source.

How the values were obtained:
[1] = test system: Neonatal rat ventricular myocytes (NRVM) expressing 2157del2 JUP; assay: Immunofluorescence of junction proteins in ACM in vitro model; assay type: cell-based; conditions: for Loss of cell surface signal for Cx43 / Redistribution of junctional plakoglobin to intracellular/nuclear sites: 500 nM 2.017 or 1 μM 1.045, 24 hours; for ACM disease features overall (plakoglobin, Cx43, pRelA/p65, TUNEL), sEH inhibitors: Jup2157del2 myocytes, 2.017 500 nM, 1.045 1 μM, concentration not given for 1,002 and 3.023
Experimental: Neonatal rat ventricular myocytes (NRVM) were isolated from the ventricles of 1-day-old Wistar rat pups and plated on collagen-coated plastic chambers. 24 hours following seeding, the cells were transfected with an adenoviral construct expressing a mutant form of plakoglobin known to cause arrhythmogenic cardiomyopathy in patients (2157del2 JUP). […] Non-transfected cultures and cultures transfected with the adenoviral construct only served as negative and positive controls, respectively.
(§1) Immunofluorescence: Cell cultures were fixed with 4% paraformaldehyde and prepared for immunofluorescence analysis as previously described (1). […] Cy3-conjugated goat anti-mouse and anti-rabbit antibodies (Jackson Immunolabs) were used as secondary antibodies and DAPI was used to visualize the nuclei. Immunostained preparations were visualized by confocal microscopy and changes in spatial distribution of signal were assessed qualitatively.

[2] = test system: Neonatal rat ventricular myocytes (NRVM) expressing 2157del2 JUP; assay: TUNEL apoptosis assay in ACM in vitro model; assay type: cell-based; conditions: 500 nM 2.017 or 1 μM 1.045, 24 hours
Experimental: (§2) Neonatal rat ventricular myocytes (NRVM) were isolated from the ventricles of 1-day-old Wistar rat pups and plated on collagen-coated plastic chambers. 24 hours following seeding, the cells were transfected with an adenoviral construct expressing a mutant form of plakoglobin known to cause arrhythmogenic cardiomyopathy in patients (2157del2 JUP). 24 hours following transfection, the cells were treated with 500 nM 2.017 or 1 μM 1.045 for an additional 24 hours. Non-transfected cultures and cultures transfected with the adenoviral construct only served as negative and positive controls, respectively.
Apoptosis assay: Terminal deoxynucleotidyl transferase dUTP nick end labelling (TUNEL) was performed on NRVM cultures following the manufacturer's instructions (Millipore, S7110). DNA strand breaks generated in apoptotic cells were labelled with fluorescein (green) and nuclei were visualized with DAPI. The number of TUNEL-positive nuclei was counted in 5 randomly selected high-power fields in each culture well and expressed as a percent of total nuclei visualized with DAPI.

NFκB = assay: Nuclear pRelA/p65 immunofluorescence (NFκB activation) in ACM in vitro model; assay type: cell-based, rat; conditions: 500 nM 2.017 or 1 μM 1.045, 24 hours
Experimental: as §2, §1

Dsg2^mut/mut mice = assay: LV function in Dsg2mut/mut mice; assay type: in vivo, mouse; conditions: 3 mg/kg/day for 20 days, vs. untreated mice
Solubility in buffer = assay type: physicochemical; conditions: aqueous buffer; Sodium Phosphate Buffer at pH 7.4
Experimental LogP = assay type: physicochemical
[3] = target: T1, soluble epoxide hydrolase (sEH) (Homo sapiens, UniProt P34913); assay: Human in vitro Ki and dissociation t1/2 from the enzyme (fluorescence signals); assay type: binding; conditions: for Human In vitro t1/2 (time for half of the drug being dissociated from the enzyme): based on fluorescence signals
T1 sequence (P34913 1-555): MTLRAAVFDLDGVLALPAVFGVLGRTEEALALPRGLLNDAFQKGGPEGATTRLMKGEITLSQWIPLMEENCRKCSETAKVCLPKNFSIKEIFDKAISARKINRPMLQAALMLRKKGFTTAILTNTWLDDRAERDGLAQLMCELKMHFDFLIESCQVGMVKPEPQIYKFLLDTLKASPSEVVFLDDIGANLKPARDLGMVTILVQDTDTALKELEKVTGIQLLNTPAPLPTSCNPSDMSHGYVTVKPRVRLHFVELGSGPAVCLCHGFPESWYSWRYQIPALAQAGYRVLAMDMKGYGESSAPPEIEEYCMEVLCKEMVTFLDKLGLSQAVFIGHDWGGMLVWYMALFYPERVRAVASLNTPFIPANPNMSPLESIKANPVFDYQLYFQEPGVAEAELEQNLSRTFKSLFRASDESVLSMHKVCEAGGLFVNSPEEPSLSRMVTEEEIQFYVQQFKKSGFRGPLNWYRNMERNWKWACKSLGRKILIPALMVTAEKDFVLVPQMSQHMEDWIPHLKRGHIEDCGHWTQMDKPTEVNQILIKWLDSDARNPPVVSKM

[4] = Rat PK, single oral gavage; assay type: in vivo; conditions: single dose 0.1 mg/kg
[5] = Mouse PK, single oral gavage; conditions: mouse, in vivo, po, 0.3 mg/kg, single dose 0.3 mg/kg; for AUC: Mouse AUC, 20% PEG400 in oleic acid-rich triglyceride

Structure (SMILES)	Loss of cell surface signal for Cx43 [1]	Redistribution of junctional plakoglobin to intracellular/nuclear sites [1]	ACM disease features overall (plakoglobin, Cx43, pRelA/p65, TUNEL), sEH inhibitors [1]	Myocyte apoptosis (TUNEL+ nuclei) [2]	Activation of NFκB (nuclear signal for pRelA/p65) (NFκB)	Human In vitro t1/2 (time for half of the drug being dissociated from the enzyme) [3] [h]	Exp. LogP (Experimental LogP)	AUC ([5]; oral gavage) [µM·h]	also measured
CCC(=O)N1CCC(NC(=O)Nc2ccc(OC(F)(F)F)cc2)CC1 [Compound 1.045]	reduced loss of cell surface signal for Cx43	prevented redistribution of junctional plakoglobin; also recorded: prevented translocation of junctional plakoglobin	reversed	greatly diminished myocyte apoptosis	prevented activation of NFκB; also recorded: blocked activation of NFκB	–	–	–	LV function (Dsg2^mut/mut mice): marked recovery of LV function; also recorded: recovered LV function
NS(=O)(=O)c1ccc(-n2nc(CCCNC(=O)Nc3ccc(C(F)(F)F)cc3)cc2-c2ccccc2)cc1 [Compound 2.017]	reduced loss of cell surface signal for Cx43	prevented redistribution of junctional plakoglobin; also recorded: prevented translocation of junctional plakoglobin	reversed	greatly diminished myocyte apoptosis	prevented activation of NFκB; also recorded: blocked activation of NFκB	–	–	–	–
CC[C@H](C)C(=O)N1CCC(CC(=O)Nc2ccc(OC(F)(F)F)cc2F)CC1	–	–	–	–	–	0.0783	–	–	solubility (Solubility in buffer): 2.6 µg/mL (≈ 6.43 µM); logP (Experimental LogP; read-out: Exp. LogP): 6; Ki [3]: 4.72 nM
O=C(Nc1ccc(C(F)(F)F)c(F)c1)NC1CCN(C(=O)[C@@H]2CCOC2)CC1 (stereo in doubt)	–	–	–	–	–	–	3.41	–	–
CC[C@H](C)C(=O)N1CCC(NC(=O)Nc2ccc(OC(F)(F)F)c(Cl)c2)CC1	–	–	–	–	–	0.167	–	≥ 0.0999	Cmax ([4]; rat, in vivo): 42 ± 6 nM; Tmax ([4]; rat, in vivo): 2.1 ± 0.3 h; AUC ([4]; rat, in vivo, PEG 300): 0.241 ± 0.012 µM·h; half-life ([4]; rat, in vivo, read-out: Rat T1/2 (converted)): 2.9 ± 0.5 h
CC[C@H](C)C(=O)N1CCC(NC(=O)Nc2ccc(OC(F)(F)F)c(F)c2)CC1 [drawing 88]	–	–	–	–	–	–	5.98	0.0998 ± 0.0001	Cmax [4]: 42 ± 6 nM; Rat T1/2 [4]: 1.6 ± 0.2 h; Rat Tmax [4]: 1.8 ± 0.1 h; Rat AUC ([4]; PEG 300): 0.208 ± 0.025 µM·h; Cmax ([5]; Mouse Cmax, oral gavage): 737 nM; half-life ([5]; Mouse T1/2, oral gavage): 117 h; Tmax ([5]; Mouse Tmax, oral gavage): 1.6 h
